Patent US7098340B2, “Benzyl sulfonamide derivatives” (Warner Lambert Company LLC, priority 2003, dated 2006)

What follows are compounds tested against T1, androgen receptor (Homo sapiens, UniProt P10275) (assay: AR Antagonist Cell Assay (MMTV-luciferase reporter, DHT-stimulated)). Details: MDA-MB453-MMTV clone 54-19 cells; antagonism of 100 pM DHT, 17 hr, luciferase readout.
T1 sequence (P10275 1-920 Q868H): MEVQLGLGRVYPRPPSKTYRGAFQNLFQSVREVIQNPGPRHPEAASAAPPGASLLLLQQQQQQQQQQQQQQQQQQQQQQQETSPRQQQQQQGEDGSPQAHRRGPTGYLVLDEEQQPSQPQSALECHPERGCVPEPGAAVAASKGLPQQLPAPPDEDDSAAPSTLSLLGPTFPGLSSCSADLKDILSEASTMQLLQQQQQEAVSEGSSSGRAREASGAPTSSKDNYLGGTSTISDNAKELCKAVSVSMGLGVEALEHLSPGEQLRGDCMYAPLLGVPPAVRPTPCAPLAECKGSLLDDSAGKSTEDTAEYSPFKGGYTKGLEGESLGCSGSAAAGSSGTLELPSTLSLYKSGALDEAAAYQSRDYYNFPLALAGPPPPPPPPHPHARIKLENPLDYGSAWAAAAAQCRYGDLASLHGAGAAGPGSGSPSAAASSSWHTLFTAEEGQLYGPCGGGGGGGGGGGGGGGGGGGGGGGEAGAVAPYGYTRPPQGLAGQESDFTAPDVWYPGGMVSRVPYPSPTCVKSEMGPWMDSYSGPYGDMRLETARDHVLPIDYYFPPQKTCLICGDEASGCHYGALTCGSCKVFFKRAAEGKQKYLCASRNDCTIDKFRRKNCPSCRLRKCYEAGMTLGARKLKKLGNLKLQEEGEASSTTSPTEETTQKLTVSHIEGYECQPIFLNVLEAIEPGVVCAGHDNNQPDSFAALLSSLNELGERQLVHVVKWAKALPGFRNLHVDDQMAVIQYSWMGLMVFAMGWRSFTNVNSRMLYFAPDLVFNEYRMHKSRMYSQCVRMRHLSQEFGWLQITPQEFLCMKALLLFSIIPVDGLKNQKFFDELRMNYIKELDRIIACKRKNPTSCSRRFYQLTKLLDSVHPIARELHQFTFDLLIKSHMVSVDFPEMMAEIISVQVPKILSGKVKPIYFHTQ
Assay type: cell-based
Summary of the method: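 MDA-MB453 cells stably carrying MMTV-ARE-firefly luciferase, in 1% charcoal-treated serum, preincubated 30 min with compound (10 uM or 1 uM) then stimulated with 100 pM DHT for 17 h at 37° C. Luminescence read; result as % inhibition of DHT fold induction.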
With `O=c1cc(C(F)(F)F)c2cc(Cc3ccc(S(=O)(=O)Nc4cc5ccccc5cn4)cc3)ccc2o1` [Example 136, N-Isoquinolin-3-yl-4-(2-oxo-4-trifluoromethyl-2H-chromen-6-ylmethyl)benzenesulfonamide] the IC50 was > 10 µM.
For `O=c1cc(C(F)(F)F)c2cc(Cc3ccc(S(=O)(=O)Nc4cccc5cccnc45)cc3)ccc2o1` [Example 137, 4-(2-Oxo-4-trifluoromethyl-2H-chromen-6-ylmethyl)-N-quinolin-8-ylbenzenesulfonamide], the IC50 was 7.08 µM.
Work on `CSc1n[nH]c(NS(=O)(=O)c2ccc(Cc3ccc4oc(=O)cc(C(F)(F)F)c4c3)cc2)c1C#N` [Example 138, N-(4-Cyano-5-methylsulfanyl-2H-pyrazol-3-yl)-4-(2-oxo-4-trifluoromethyl-2H-chromen-6-ylmethyl)benzenesulfonamide] yielded an IC50 of 1.9 µM.
With `Cc1ccc2cc(NS(=O)(=O)c3ccc(Cc4ccc5oc(=O)cc(C(F)(F)F)c5c4)cc3)ccc2n1` [Example 139, N-(2-Methylquinolin-6-yl)-4-(2-oxo-4-trifluoromethyl-2H-chromen-6-ylmethyl)-benzenesulfonamide] the IC50 was 2.03 µM.
With `COc1ccc(OC)c(NS(=O)(=O)c2ccc(Cc3ccc4oc(=O)cc(C(F)(F)F)c4c3)cc2)c1` [Example 140, N-(2,5-Dimethoxyphenyl)-4-(2-oxo-4-trifluoromethyl-2H-chromen-6-ylmethyl)-benzenesulfonamide] the IC50 was 7.3 µM.
`COc1cc(NS(=O)(=O)c2ccc(Cc3ccc4oc(=O)cc(C(F)(F)F)c4c3)cc2)cc(OC)c1` [Example 141, N-(3,5-Dimethoxyphenyl)-4-(2-oxo-4-trifluoromethyl-2H-chromen-6-ylmethyl)-benzenesulfonamide] showed an IC50 of 3.24 µM.
Compound `CC(C)Oc1cccc(NS(=O)(=O)c2ccc(Cc3ccc4oc(=O)cc(C(F)(F)F)c4c3)cc2)c1` [Example 142, N-(3-Isopropoxyphenyl)-4-(2-oxo-4-trifluoromethyl-2H-chromen-6-ylmethyl)-benzenesulfonamide] has an IC50 of ~10 µM.
Work on `O=c1cc(C(F)(F)F)c2cc(Cc3ccc(S(=O)(=O)Nc4cccc(OC(F)F)c4)cc3)ccc2o1` [Example 143, N-(3-Difluoromethoxyphenyl)-4-(2-oxo-4-trifluoromethyl-2H-chromen-6-ylmethyl)-benzenesulfonamide] yielded an IC50 of 2.81 µM.
`O=c1cc(C(F)(F)F)c2cc(Cc3ccc(S(=O)(=O)Nc4cccc(-c5cnco5)c4)cc3)ccc2o1` [Example 144, N-(3-Oxazol-5-ylphenyl)-4-(2-oxo-4-trifluoromethyl-2H-chromen-6-ylmethyl)-benzenesulfonamide] gave an IC50 of 2.17 µM.
For `O=c1cc(C(F)(F)F)c2cc(Cc3ccc(S(=O)(=O)Nc4cccc(C(F)(F)F)c4)cc3)ccc2o1` [Example 145, 4-(2-Oxo-4-trifluoromethyl-2H-chromen-6-ylmethyl)-N-(3-trifluoromethylphenyl)-benzenesulfonamide], the IC50 was 1.72 µM.
For `O=c1cc(C(F)(F)F)c2cc(Cc3ccc(S(=O)(=O)Nc4ccccc4N4CCCCC4)cc3)ccc2o1` [Example 146, 4-(2-Oxo-4-trifluoromethyl-2H-chromen-6-ylmethyl)-N-(2-piperidin-1-ylphenyl)-benzenesulfonamide], the IC50 was 4.82 µM.
In the case of `O=c1cc(C(F)(F)F)c2cc(Cc3ccc(S(=O)(=O)Nc4cccc(OC(F)(F)F)c4)cc3)ccc2o1` [Example 147, 4-(2-Oxo-4-trifluoromethyl-2H-chromen-6-ylmethyl)-N-(3-trifluoromethoxyphenyl)-benzenesulfonamide], the IC50 is reported as 8.58 µM.
For `CCOC(=O)Cc1ccc(NS(=O)(=O)c2ccc(Cc3ccc4oc(=O)cc(C(F)(F)F)c4c3)cc2)cc1` [Example 148, {4-[4-(2-Oxo-4-trifluoromethyl-2H-chromen-6-ylmethyl)-benzenesulfonylamino]-phenyl}acetic acid ethyl ester], the IC50 was 3.13 µM.
With `O=c1cc(C(F)(F)F)c2cc(Cc3ccc(S(=O)(=O)Nc4cccc(Cc5ccccc5)c4)cc3)ccc2o1` [Example 149, N-(3-Benzylphenyl)-4-(2-oxo-4-trifluoromethyl-2H-chromen-6-ylmethyl)benzenesulfonamide] the IC50 was 4.74 µM.
Compound `CCOc1ccc(NS(=O)(=O)c2ccc(Cc3ccc4oc(=O)cc(C(F)(F)F)c4c3)cc2)cc1` [Example 150, N-(4-Ethoxyphenyl)-4-(2-oxo-4-trifluoromethyl-2H-chromen-6-ylmethyl)-benzenesulfonamide] has an IC50 of 7.2 µM.
`O=c1cc(C(F)(F)F)c2cc(Cc3ccc(S(=O)(=O)Nc4ccc(CCO)cc4)cc3)ccc2o1` [Example 151, N-[4-(2-Hydroxyethyl)phenyl]-4-(2-oxo-4-trifluoromethyl-2H-chromen-6-ylmethyl)-benzenesulfonamide] showed an IC50 of 1.75 µM.
In the case of `O=c1cc(C(F)(F)F)c2cc(Cc3ccc(S(=O)(=O)Nc4cccc(OCc5ccccc5)c4)cc3)ccc2o1` [Example 152, N-(3-Benzyloxyphenyl)-4-(2-oxo-4-trifluoromethyl-2H-chromen-6-ylmethyl)-benzenesulfonamide], the IC50 is reported as 0.77 µM.
For `CC(C)(C)c1cc(NS(=O)(=O)c2ccc(Cc3ccc4oc(=O)cc(C(F)(F)F)c4c3)cc2)cc(C(C)(C)C)c1` [Example 153, N-(3,5-Di-tert-butylphenyl)-4-(2-oxo-4-trifluoromethyl-2H-chromen-6-ylmethyl)-benzenesulfonamide], the IC50 was > 10 µM.
`COc1ccc(N(Cc2ccccc2)S(=O)(=O)c2ccc(Cc3ccc4oc(=O)cc(C(F)(F)F)c4c3)cc2)cc1` [Example 154, N-Benzyl-N-(4-methoxyphenyl)-4-(2-oxo-4-trifluoromethyl-2H-chromen-6-ylmethyl)benzenesulfonamide] gave an IC50 of 6.06 µM.
In the case of `O=c1cc(C(F)(F)F)c2cc(Cc3ccc(S(=O)(=O)Nc4ccc(-n5ccc(C(F)(F)F)n5)cc4)cc3)ccc2o1` [Example 155, 4-(2-Oxo-4-trifluoromethyl-2H-chromen-6-ylmethyl)-N-[4-(3-trifluoromethylpyrazol-1-yl)phenyl]benzenesulfonamide], the IC50 is reported as 6.5 µM.
`COc1cccc(NS(=O)(=O)c2ccc(Cc3ccc4oc(=O)cc(C(F)(F)F)c4c3)cc2)c1` [Example 156, N-(3-Methoxyphenyl)-4-(2-oxo-4-trifluoromethyl-2H-chromen-6-ylmethyl)benzene-sulfonamide] gave an IC50 of 1.72 µM.
`O=c1cc(C(F)(F)F)c2cc(Cc3ccc(S(=O)(=O)NC4CCN(Cc5ccccc5)CC4)cc3)ccc2o1` [Example 157, N-(1-Benzylpipendin-4-yl)-4-(2-oxo-4-trifluoromethyl-2H-chromen-6-ylmethyl)benzenesulfonamide] showed an IC50 of 6.09 µM.
`O=c1cc(C(F)(F)F)c2cc(Cc3ccc(S(=O)(=O)NC4CCCC4)cc3)ccc2o1` [Example 158, N-Cyclopentyl-4-(2-oxo-4-trifluoromethyl-2H-chromen-6-ylmethyl)benzenesulfonamide] was tested, and the IC50 was 6.5 µM.
In the case of `CC(C)CCNS(=O)(=O)c1ccc(Cc2ccc3oc(=O)cc(C(F)(F)F)c3c2)cc1` [Example 159, N-(3-Methylbutyl)-4-(2-oxo-4-trifluoromethyl-2H-chromen-6-ylmethyl)benzenesulfonamide], the IC50 is reported as > 10 µM.
For `O=c1cc(C(F)(F)F)c2cc(Cc3ccc(S(=O)(=O)NC[C@H](O)CO)cc3)ccc2o1` [Example 160, N-(2,3-Dihydroxypropyl)-4-(2-oxo-4-trifluoromethyl-2H-chromen-6-ylmethyl)benzenesulfonamide], the IC50 was > 10 µM.
`O=c1cc(C(F)(F)F)c2cc(Cc3ccc(S(=O)(=O)NCc4cccnc4)cc3)ccc2o1` [Example 163, 4-(2-Oxo-4-trifluoromethyl-2H-chromen-6-ylmethyl)-N-pyridin-3-ylmethylbenzenesulfonamide] showed an IC50 of 3.08 µM.
`O=c1cc(C(F)(F)F)c2cc(Cc3ccc(S(=O)(=O)NCC4CCCCC4)cc3)ccc2o1` [Example 165, N-Cyclohexylmethyl-4-(2-oxo-4-trifluoromethyl-2H-chromen-6-ylmethyl)benzene-sulfonamide] showed an IC50 of ~10 µM.
`O=c1cc(C(F)(F)F)c2cc(Cc3ccc(S(=O)(=O)NC4CCCCCC4)cc3)ccc2o1` [Example 166, N-Cycloheptyl-4-(2-oxo-4-trifluoromethyl-2H-chromen-6-ylmethyl)benzenesulfonamide] gave an IC50 of 6.97 µM.
In the case of `O=c1cc(C(F)(F)F)c2cc(Cc3ccc(S(=O)(=O)NC4(CO)CCCC4)cc3)ccc2o1` [Example 167, N-(1-Hydroxymethyl-cyclopentyl)-4-(2-oxo-4-trifluoromethyl-2H-chromen-6-ylmethyl)benzenesulfonamide], the IC50 is reported as > 10 µM.
Compound `Cc1cccc(CNS(=O)(=O)c2ccc(Cc3ccc4oc(=O)cc(C(F)(F)F)c4c3)cc2)c1` [Example 169, N-(3-Methylbenzyl)-4-(2-oxo-4-trifluoromethyl-2H-chromen-6-ylmethyl)benzenesulfonamide] has an IC50 of 5.81 µM.
